# Measurements reported in ChEMBL document CHEMBL5537180, “Discovery of Novel Aminobutanoic Acid-Based ASCT2 Inhibitors for the Treatment of Non-Small-Cell Lung Cancer” (J Med Chem, 2024).
# The source made the active and inactive calls. The rule behind the calls is not given here.
# Columns and labels:
# [1] = Apparent clearance in Sprague-Dawley rat at 10 mg/kg, ip incubated for 24 hrs by LC-MS/MS analysis; assay type: ADME, organism-based; settings: in vivo
# A549 [2] = assay: Antitumor activity against human A549 cells xenografted in BALB/c nude mouse assessed as inhibition of tumor volume at 25 to 50 mg/kg, ip measured daily for 3 weeks; assay type: functional, organism-based; settings: dose 25-50 mg/kg
# [3] = biological target: T1, Sodium-coupled neutral amino acid symporter 2 (Homo sapiens) (UniProt Q96QD8); assay: Inhibition of SNAT2 (unknown origin) overexpressed in HEK293 cells assessed as reduction in [13C]-Gln uptake preincubated for 5 mins followed by substrate addition and measured after 15 mins; assay type: cell-based; settings: time 20.0 min
# T1 sequence (whole entry): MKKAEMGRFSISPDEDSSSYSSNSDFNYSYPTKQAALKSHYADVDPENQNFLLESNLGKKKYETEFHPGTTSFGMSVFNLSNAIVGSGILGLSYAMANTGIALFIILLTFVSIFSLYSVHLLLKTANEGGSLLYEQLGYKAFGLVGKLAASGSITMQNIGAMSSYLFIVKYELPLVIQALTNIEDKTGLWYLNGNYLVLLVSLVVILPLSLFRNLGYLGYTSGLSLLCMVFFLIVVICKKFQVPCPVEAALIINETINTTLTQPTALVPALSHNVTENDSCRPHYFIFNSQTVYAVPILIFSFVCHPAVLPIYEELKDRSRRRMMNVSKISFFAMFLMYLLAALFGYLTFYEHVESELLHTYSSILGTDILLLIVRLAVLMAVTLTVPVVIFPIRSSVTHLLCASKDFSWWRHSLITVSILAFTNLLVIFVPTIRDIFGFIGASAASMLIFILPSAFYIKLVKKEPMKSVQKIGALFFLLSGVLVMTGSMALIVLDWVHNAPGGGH
# A549 [4] = assay: Inhibition of Gln uptake in human A549 cells assessed as reduction in intracellular glutamate level incubated for 24 hrs by LC-MS/MS analysis; assay type: functional, cell-based
# A549 [5] = assay: Induction of apoptosis in human A549 cells assessed as viable cells at 5 uM measured after 24 hrs by annexin-V/PI staining based flow cytometry analysis (reference value: 97.0%); assay type: functional; settings: read-out: Activity
# A549 [6] = assay: Induction of apoptosis in human A549 cells assessed as viable cells at 10 uM measured after 24 hrs by annexin-V/PI staining based flow cytometry analysis (reference value: 97.0%); assay type: functional; settings: read-out: Activity
# A549 [7] = assay: Induction of apoptosis in human A549 cells assessed as early apoptotic cells at 5 uM measured after 24 hrs by annexin-V/PI staining based flow cytometry analysis (reference value: 1.56%); assay type: functional
# A549 [8] = assay: Induction of apoptosis in human A549 cells assessed as early apoptotic cells at 10 uM measured after 24 hrs by annexin-V/PI staining based flow cytometry analysis (reference value: 1.56%); assay type: functional
# A549 [9] = assay: Induction of apoptosis in human A549 cells assessed as late apoptotic cells at 5 uM measured after 24 hrs by annexin-V/PI staining based flow cytometry analysis (reference value: 1.34%); assay type: functional
# A549 [10] = assay: Induction of apoptosis in human A549 cells assessed as late apoptotic cells at 10 uM measured after 24 hrs by annexin-V/PI staining based flow cytometry analysis (reference value: 1.34%); assay type: functional
# A549 [11] = assay: Induction of apoptosis in human A549 cells assessed as necrotic cells at 5 uM measured after 24 hrs by annexin-V/PI staining based flow cytometry analysis (reference value: 0.13%); assay type: functional
# A549 [12] = assay: Induction of apoptosis in human A549 cells assessed as necrotic cells at 10 uM measured after 24 hrs by annexin-V/PI staining based flow cytometry analysis (reference value: 0.13%); assay type: functional
# [13] = Bioavailability in Sprague-Dawley rat at 10 mg/kg, ip incubated for 24 hrs by LC-MS/MS analysis; assay type: ADME, organism-based; settings: in vivo
# [14] = biological target: T2, Sodium-coupled neutral amino acid symporter 1 (Homo sapiens) (UniProt Q9H2H9); assay: Inhibition of SNAT1 (unknown origin) overexpressed in human A549 cells assessed as reduction in [13C]-Gln uptake preincubated for 5 mins followed by substrate addition and measured after 15 mins; assay type: cell-based; settings: time 20.0 min
# T2 sequence (whole entry): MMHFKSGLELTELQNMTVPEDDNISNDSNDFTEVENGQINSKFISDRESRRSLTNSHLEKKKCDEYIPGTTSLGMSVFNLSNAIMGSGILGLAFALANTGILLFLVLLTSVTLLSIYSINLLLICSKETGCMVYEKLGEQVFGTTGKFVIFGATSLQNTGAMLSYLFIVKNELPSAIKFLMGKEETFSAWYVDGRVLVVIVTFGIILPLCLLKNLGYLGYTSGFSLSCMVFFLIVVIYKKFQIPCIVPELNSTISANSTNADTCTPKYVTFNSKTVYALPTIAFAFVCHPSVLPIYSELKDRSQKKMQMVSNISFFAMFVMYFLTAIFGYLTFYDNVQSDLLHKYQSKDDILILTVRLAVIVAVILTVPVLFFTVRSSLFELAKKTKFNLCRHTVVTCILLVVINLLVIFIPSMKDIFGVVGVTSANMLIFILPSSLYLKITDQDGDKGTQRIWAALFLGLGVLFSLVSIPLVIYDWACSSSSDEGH
smiles,measurement,setting,value
CC(C)(C)c1ccc(OCC#Cc2ccccc2)c(CN(CC[C@H](N)C(=O)O)Cc2cc(C(C)(C)C)ccc2OCC#Cc2ccccc2)c1,CL/F,[1],12 mL/min/kg
same,Activity,A549 [2],Active
same,inhibition,[3],inactive
same,inhibition,A549 [4],Active
N[C@@H](CCN(Cc1ccccc1OCC#Cc1ccc(Cl)cc1)Cc1ccccc1OCC#Cc1ccc(Cl)cc1)C(=O)O,viability at 5 µM,A549 [5],90.3%
same,viability at 10 µM,A549 [6],84.4%
same,Activity,A549 [7],2.47%
same,Activity,A549 [8],6.93%
same,Activity,A549 [9],6.44%
same,Activity,A549 [10],7.29%
same,Activity,A549 [11],0.79%
same,Activity,A549 [12],1.4%
same,CL/F,[1],60.5 mL/min/kg
same,bioavailability,[13],77%
same,Activity,A549 [2],Active
same,inhibition,[3],inactive
same,inhibition,[14],Active
same,inhibition,A549 [4],Active
